# Laboratory results taken from US20080318947A1, “Inhibitors of Akt Activity” (priority 2005, published 2008).
# Key:
# Experiment in all cases: AKT enzyme assay (substrate phosphorylation, SPA)
# Assay type in all cases: biochemical
# AKT1 = target: T1, AKT1 (Homo sapiens, UniProt P31749); settings: 10 nM activated AKT enzyme, 4 uM ATP, 8 uM peptide, 40 minutes at room temperature; read-out: IC50 value against AKT1
# T1 construct: Insect cells expressing His-tagged AKT1 (aa 136-480) are lysed; His; made in house; host or cells: insect cells
# Procedure: Cell debris are removed by centrifuging at 28,000×g for 30 minutes. The supernatant is filtered through a […] filter then loaded onto a nickel-chelating column pre-equilibrated with lysis buffer. The column is washed with 5 column volumes (CV) of lysis buffer then with 5 CV of 20% buffer B, where buffer B is 25 mM HEPES, 100 mM NaCl, 300 mM imidazole; pH 7.5. […] The sample is then chromatographed over a Q-Sepharose HP column pre-equilibrated with buffer C. The column is washed with 5 CV of buffer C then step eluted with 5 CV 10% D, 5 CV 20% D, 5 CV 30% D, 5 CV 50% D and 5 CV of 100% D; where buffer D is 25 mM HEPES, 1000 mM NaCl; pH 7.5. […] The protein is pooled, concentrated and frozen at −80 C.
# (§1) Compounds of the present invention are tested for AKT 1, 2, and 3 protein serine kinase inhibitory activity in substrate phosphorylation assays. This assay examines the ability of small molecule organic compounds to inhibit the serine phosphorylation of a peptide substrate. The substrate phosphorylation assays use the catalytic domains of AKT 1, 2, or 3. AKT 1, 2 and 3 are also commercially available from Upstate USA, Inc. The method measures the ability of the isolated enzyme to catalyze the transfer of the gamma-phosphate from ATP onto the serine residue of a biotinylated synthetic peptide SEQ. ID NO: 5 (Biotin-ahx-[…]-amide). Substrate phosphorylation is detected by the following procedure:
# (§2) Assays are performed in 384 well U-bottom white plates. […] ATP/well, 1 mM CHAPS, 2 mM DTT, and 1 ul of test compound in 100% DMSO. The reaction is stopped by the addition of 50 ul SPA bead mix (Dulbecco's PBS without Mg^2+ and Ca^2+, 0.1% Triton X-100, 5 mM EDTA, 50 uM ATP, 2.5 mg/ml Streptavidin-coated SPA beads.) The plate is sealed, the beads are allowed to settle overnight, and then the plate is counted in a Packard Topcount Microplate Scintillation Counter (Packard Instrument Co., Meriden, Conn.).
# (§3) The data for dose responses are plotted as % Control calculated with the data reduction formula 100*(U1−C2)/(C1−C2) versus concentration of compound where U is the unknown value, C1 is the average control value obtained for DMSO, and C2 is the average control value obtained for 0.1M EDTA. Data are fitted to the curve described by: y=((Vmax*x)/(K+x)) where Vmax is the upper asymptote and K is the IC50.
# AKT2 = target: T2, AKT2 (Homo sapiens, UniProt P31751); settings: 10 nM activated AKT enzyme, 4 uM ATP, 8 uM peptide, 40 minutes at room temperature; read-out: IC50 value against AKT2
# T2 construct: His-tagged AKT2 (aa 138-481) and His-tagged AKT3 (aa 135-479) are isolated; His; made in house; host or cells: insect cells (by 'similar fashion' to AKT1)
# Procedure: as §1, §2, §3
# AKT3 = target: T3, AKT3 (Homo sapiens, UniProt Q9Y243); settings: 10 nM activated AKT enzyme, 4 uM ATP, 8 uM peptide, 40 minutes at room temperature; read-out: IC50 value against AKT3
# T3 construct: His-tagged AKT3 (aa 135-479) are isolated and purified in a similar fashion; His; made in house; host or cells: insect cells (by 'similar fashion' to AKT1)
# Procedure: as §1, §2, §3
# T2 sequence (P31751 138-481): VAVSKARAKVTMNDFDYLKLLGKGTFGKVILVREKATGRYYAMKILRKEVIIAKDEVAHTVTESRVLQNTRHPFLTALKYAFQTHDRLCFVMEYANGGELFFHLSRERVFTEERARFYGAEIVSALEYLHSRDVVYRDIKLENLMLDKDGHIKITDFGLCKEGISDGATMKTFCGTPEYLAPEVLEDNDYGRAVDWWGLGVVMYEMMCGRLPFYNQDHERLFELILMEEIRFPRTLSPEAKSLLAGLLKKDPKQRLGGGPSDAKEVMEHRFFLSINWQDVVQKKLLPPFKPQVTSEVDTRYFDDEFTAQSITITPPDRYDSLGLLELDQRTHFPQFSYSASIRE
# T3 sequence (Q9Y243 135-479): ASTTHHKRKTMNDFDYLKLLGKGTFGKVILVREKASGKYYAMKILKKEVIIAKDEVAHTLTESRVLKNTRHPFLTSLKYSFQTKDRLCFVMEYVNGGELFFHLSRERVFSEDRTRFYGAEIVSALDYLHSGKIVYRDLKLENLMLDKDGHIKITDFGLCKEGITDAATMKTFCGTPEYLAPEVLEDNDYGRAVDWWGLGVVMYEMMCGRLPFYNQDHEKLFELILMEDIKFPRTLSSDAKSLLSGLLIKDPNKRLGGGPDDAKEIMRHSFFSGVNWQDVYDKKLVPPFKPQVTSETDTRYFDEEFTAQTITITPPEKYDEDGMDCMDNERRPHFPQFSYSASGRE
# T1 sequence (P31749 136-480): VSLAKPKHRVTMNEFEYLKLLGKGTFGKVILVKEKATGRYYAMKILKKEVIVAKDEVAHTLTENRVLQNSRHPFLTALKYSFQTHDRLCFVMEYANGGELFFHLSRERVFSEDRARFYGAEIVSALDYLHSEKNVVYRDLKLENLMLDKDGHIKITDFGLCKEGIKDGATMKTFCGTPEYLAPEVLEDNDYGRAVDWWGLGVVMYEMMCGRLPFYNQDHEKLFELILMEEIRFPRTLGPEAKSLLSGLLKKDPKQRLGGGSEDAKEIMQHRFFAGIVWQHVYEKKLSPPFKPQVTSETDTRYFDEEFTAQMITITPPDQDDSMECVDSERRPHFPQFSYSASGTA
SMILES,IC50 (AKT1),IC50 (AKT2),IC50 (AKT3)
"CCn1c(-c2nonc2N)nc2c(C#CC(C)(C)O)nc(OC[C@H](N)Cc3ccccc3)cc21 [Example 43, 4-(2-(4-amino-1,2,5-oxadiazol-3-yl)-6-{[(2R)-2-amino-3-phenylpropyl]oxy}-1-ethyl-1H-imidazo[4,5-c]pyridin-4-yl)-2-methyl-3-butyn-2-ol]",≤ 500 nM,,≤ 500 nM
"CCn1c(-c2nonc2N)nc2c(C#CC(C)(C)O)nc(OC(CN)c3cccc4c3OCO4)cc21 (racemic) [Example 92, 4-[6-{[2-amino-1-(1,3-benzodioxol-4-yl)ethyl]oxy}-2-(4-amino-1,2,5-oxadiazol-3-yl)-1-ethyl-1H-imidazo[4,5-c]pyridin-4-yl]-2-methyl-3-butyn-2-ol]",≤ 500 nM,≤ 500 nM,≤ 500 nM
"CCn1c(-c2nonc2N)nc2c(C#CC(C)(C)O)nc(OC(CN)c3cccc4c3OCO4)cc21 (single isomer, unassigned) [Example 93, 4-[6-{[2-amino-1-(1,3-benzodioxol-4-yl)ethyl]oxy}-2-(4-amino-1,2,5-oxadiazol-3-yl)-1-ethyl-1H-imidazo[4,5-c]pyridin-4-yl]-2-methyl-3-butyn-2-ol]",≤ 500 nM,≤ 500 nM,≤ 500 nM
"CCn1c(-c2nonc2N)nc2c(C#CC(C)(C)O)nc(O[C@@H](c3ccccc3)[C@H]3CCCN3)cc21 [Example 117, 4-[2-(4-amino-1,2,5-oxadiazol-3-yl)-1-ethyl-6-([(S)-phenyl[(2R)-2-pyrrolidinyl]methyl]oxy)-1H-imidazo[4,5-c]pyridin-4-yl]-2-methyl-3-butyn-2-ol]",≤ 500 nM,≤ 500 nM,≤ 500 nM
"CCn1c(-c2nonc2N)nc2c(C#CC(C)(C)O)nc(OC(CN)c3ccccc3Cl)cc21 (centres unmarked) [Example 152, 4-[6-{[2-amino-1-(2-chlorophenyl)ethyl]oxy}-2-(4-amino-1,2,5-oxadiazol-3-yl)-1-ethyl-1H-imidazo[4,5-c]pyridin-4-yl]-2-methyl-3-butyn-2-ol]",≤ 500 nM,≤ 500 nM,≤ 500 nM
"CCn1c(-c2nonc2N)nc2c(C#CC(C)(C)O)nc(OC(CN)c3cccc(OC)c3)cc21 (centres unmarked) [Example 132, 4-[6-({2-amino-1-[3-(methyloxy)phenyl]ethyl}oxy)-2-(4-amino-1,2,5-oxadiazol-3-yl)-1-ethyl-1H-imidazo[4,5-c]pyridin-4-yl]-2-methyl-3-butyn-2-ol]",≤ 500 nM,≤ 500 nM,≤ 500 nM
"CCn1c(-c2nonc2N)nc2c(C#CC(C)(C)O)nc(OC(CN)C3CCCCC3)cc21 (single isomer, unassigned) [Example 123, 4-[6-[(2-amino-1-cyclohexylethyl)oxy]-2-(4-amino-1,2,5-oxadiazol-3-yl)-1-ethyl-1H-imidazo[4,5-c]pyridin-4-yl]-2-methyl-3-butyn-2-ol]",≤ 500 nM,≤ 500 nM,≤ 500 nM
"CCn1c(-c2nonc2N)nc2c(C#CC(C)(C)O)nc(O[C@@H](CN)c3ccccc3)cc21 [Example 86, 4-(2-(4-amino-1,2,5-oxadiazol-3-yl)-6-{[(1R)-2-amino-1-phenylethyl]oxy}-1-ethyl-1H-imidazo[4,5-c]pyridin-4-yl)-2-methyl-3-butyn-2-ol]",,,≤ 500 nM

# More lines, now with the values ahead:
IC50 (AKT1),IC50 (AKT2),IC50 (AKT3),SMILES
≤ 500 nM,≤ 500 nM,≤ 500 nM,"CCn1c(-c2nonc2N)nc2c(C#CC(C)(C)O)nc(OC(CN)c3cccc(Cl)c3)cc21 (centres unmarked) [Example 151, 4-[6-{[2-amino-1-(3-chlorophenyl)ethyl]oxy}-2-(4-amino-1,2,5-oxadiazol-3-yl)-1-ethyl-1H-imidazo[4,5-c]pyridin-4-yl]-2-methyl-3-butyn-2-ol]"
≤ 500 nM,≤ 500 nM,≤ 500 nM,"CCn1c(-c2nonc2N)nc2c(C#CC(C)(C)O)nc(OC[C@H](N)Cc3ccccc3Cl)cc21 [Example 143, 4-[6-{[(2R)-2-amino-3-(2-chlorophenyl)propyl]oxy}-2-(4-amino-1,2,5-oxadiazol-3-yl)-1-ethyl-1H-imidazo[4,5-c]pyridin-4-yl]-2-methyl-3-butyn-2-ol]"
≤ 500 nM,≤ 500 nM,≤ 500 nM,"CCn1c(-c2nonc2N)nc2c(C#CC(C)(C)O)nc(OC(CN)Cc3ccccc3)cc21 (centres unmarked) [Example 106, 4-(2-(4-amino-1,2,5-oxadiazol-3-yl)-6-{[2-amino-1-(phenylmethyl)ethyl]oxy}-1-ethyl-1H-imidazo[4,5-c]pyridin-4-yl)-2-methyl-3-butyn-2-ol]"
,,≤ 500 nM,"CCn1c(-c2nonc2N)nc2c(C#CC(C)(C)O)nc(OC(CN)c3ccccc3)cc21 (centres unmarked) [Example 77, 4-{2-(4-amino-1,2,5-oxadiazol-3-yl)-6-[(2-amino-1-phenylethyl)oxy]-1-ethyl-1H-imidazo[4,5-c]pyridin-4-yl}-2-methyl-3-butyn-2-ol]"
,,≤ 500 nM,"CCn1c(-c2nonc2N)nc2c(C#CC(C)(C)O)nc(O[C@@H](CCN)c3ccccc3)cc21 [Example 108, 4-(2-(4-amino-1,2,5-oxadiazol-3-yl)-6-{[(1S)-3-amino-1-phenylpropyl]oxy}-1-ethyl-1H-imidazo[4,5-c]pyridin-4-yl)-2-methyl-3-butyn-2-ol]"
